In publication PMC12598805, “Crystal Structure–Activity Relationship of Some MeO Phenylacrylonitriles: Dual Antimicrobial–Cytotoxic Effects and in Silico Perspectives” (ChemistryOpen, 2025):
Where two headings read alike, the source gives them in different places.

Assays:
Type in all cases: cell-based
[1] = system: human breast carcinoma (MCF‐7) cells; test: Cytotoxicity, CCK8 cell viability; details: for IC50: Homo sapiens, MCF7, read-out: Cytotoxic activity IC50
Text: (§1) We investigated the cytotoxic effects of acrylonitrile derivatives 2(a–c) on human lung carcinoma (A549, CCL‐185) cells purchased from American Culture Collection and human breast carcinoma (MCF‐7) cells purchased from Republic of Turkey Ministry of Agriculture and Forestry Şap Institute, (HUKUK, 00092502), In addition, mouse fibroblast cells (L929, CCL‐1) purchased from American Culture Collection were used to observe the effects of the compounds on healthy cells. In 25 T Flask, A549 cells were grown in dulbecco's modified eagle's medium, MCF‐7, and L929 cells were grown in eagle's minimum essential medium (EMEM), 10% fetal bovine serum and 1% Penicillin‐Streptomycin at 37 °C in a 5% CO2 and 100% humidified incubator. Cell proliferation was checked every day. Cells were taken into the experiment when the cell density reached 70% to 80%. (See Supporting Information for experimental preparation of biological studies).
(§2) The compounds 2a, 2b, and 2c were dissolved in 99.8% Dimethyl sulfoxide (DMSO) respectively, as
(§3) 10 mM main stock. To prepare the doses of acrylonitrile compounds used in the experiment to be
(§4) applied to the cells, five different concentrations of 31.25; 62.5; 125; 250 and 500 μM were prepared
(§5) by diluting the main stock solutions (10 mM) with the medium selected according to the cells. 5-
(§6) Fluorouracil (5-FU) was selected as a positive control in the study. After the 5-FU main stock solution
(§7) was dissolved with DMSO to be 10 mM, the concentrations to be used were diluted with the selected
(§8) media and made ready for the experimental plan. The concentrations used for 5-FU were prepared in
(§9) the same doses used for acrylonitrile derivatives. For the negative control group, groups containing
(§10) only media and no substance were used. Prepared acrylonitrile compounds and 5-FU concentrations
(§11) were added to the wells in three replicates for each dose, and their effects on cell viability at 24 and 48
(§12) Trypan blue solution (Gibco, 1525061) was used to distinguish between living and dead cells in the
(§13) study. Trypan blue passes uncontrollably through the membrane of dead cells that have lost their cell
(§14) membrane integrity and stains the cell blue. Living cells, on the other hand, are not stained because
(§15) Live cell counts were performed using trypan blue using a
(§16) cell counter (Logos Luna II).
(§17) In order to detach the cells adhering to the flasks from the bottom, 500 μL of 0.25% Trypsin-EDTA
(§18) (Gibco, 15400054) solution was added and treated for five minutes.
(§19) detach from the bottom under an inverted microscope (Zeiss Primovert, Germany), medium containing
(§20) 10% FBS was added. After centrifugation at 300 g for 5 minutes and discarding the medium, 1 mL of
(§21) medium was added and the cells were seeded into 96-well culture dishes as 1x10^4 cells in 100 μL per
(§22) Cell Counting Kit 8 (CCK8; Medchem, 146436) was used to determine cell viability. After adding 20 μL
(§23) of CCK8 solution to each well in the dark, 96-well culture dishes were wrapped with aluminum foil and
(§24) kept in a CO2 incubator at 37 °C for 2 hr. Then, it was automatically read with a microplate reader
(§25) (Chromate) at 450 and 630 nm wavelengths. The following formula was used to determine cell
(§26) % Viability = (Sample Well−Blank) (Negative Control−Blank)×100 (1)
(§27) The half-maximal inhibitory concentration (IC50) was calculated as 50% cell death causing dose
(§28) compared to the control group. All data are given as the mean percent fraction of control ± SEM.
(§29) Statistical analysis was done by one-way analysis of variance (ANOVA), followed by Tukey’s multiple
(§30) comparison tests. IBM SPSS Statistics 22 was used to utilize statistical analysis. […]

[2] = system: human lung carcinoma (A549, CCL‐185) cells; test: Cytotoxicity, CCK8 cell viability; details: for suppressive effect on cell proliferation / viability: 31.25 to 500 μM; for cell suppressive effect: concentrations of 31.25, 62.5, 125 and 250 μM; for IC50: Homo sapiens, read-out: Cytotoxic activity IC50
Text: as §1, §2, §3, §4, §5, §6, §7, §8, §9, §10, §11, §12, §13, §14, §15, §16, §17, §18, §19, §20, §21, §22, §23, §24, §25, §26, §27, §28, §29, §30

[3] = system: Bacillus subtilis (ATCC-19659); test: Agar diffusion, zone of inhibition; details: B.subtilis, compounds at 50 mg mL^−1; for zone of inhibition at 50 mg/mL: Bacillus subtilis, ATCC19659
Text: The antibacterial and antifungal activities were reported utilizing the method described by the Clinical & Laboratory Standards Institute.^[ [31], [32] ^] Agar diffusion method was used to determine the antimicrobial activity of the synthesized substances. The media used were mueller hinton agar (MHA) for bacteria and sabouraud‐dextrose agar (SDA) for fungi (Merck), as recommended by the manufacturer.
The synthesized compounds were initially investigated for their antimicrobial activity to elucidate the potential therapeutic utility against various pathogenic microbes using the agar plate diffusion method. The compounds were tested at a concentration of 50 mg mL^−1, and the antibiotics (ampicillin, kanamycin, and amphotericin B) were used at 5 mg mL^−1. […] K.pneumoniae and B.cereus were resistant to ampicillin, while they were susceptible to kanamycin with inhibition values of 30 and 26 mm, respectively. No antimicrobial activity of the compounds was observed against E.faecalis, S.typhimurium, K.pneumoniae, and for the fungus compared to Amphotericin B (20 mm). […]
ATCC: American Type Culture Collection; NRRL: Northern Regional Research Laboratory The compounds 2(a-c) obtained could only be completely solubilised with dimethyl sulphoxide (DMSO) and the highest possible stock solutions of 50 mg.mL-1 were prepared. To these wells 50 μl of the previously prepared substances were transferred using sterile micropipette tips. For comparison, Ampicillin and kanamycin antibiotics for bacteria and Amphotericin B antibiotics for fungus were used as positive controls and DMSO was used as negative control. The prepared petri plates were kept at +4°C for about 1 hour and then the bacterial cultures were incubated at 37°C for 18-24 hours and mould cultures at 27-30°C for 48-72 hours. The zones formed were measured millimetrically with callipers. The experiments were performed with three repetitions. […]

| Structure (SMILES) | IC50 ([1]; MCF‐7, 24 h) | IC50 ([1]; MCF‐7, 48 h) | decrease in cell viability ([1]; MCF‐7, 24 h, 31.25 μM) | decrease in cell viability ([1]; MCF‐7, 24 h, 62.5 μM) | decrease in cell viability ([1]; MCF‐7, 24 h, 125 μM) | decrease in cell viability ([1]; MCF‐7, 24 h, 250 μM) | decrease in cell viability ([1]; MCF‐7, 24 h, 500 μM) | decrease in cell viability ([1]; MCF‐7, 48 h, 31.25 μM) | decrease in cell viability ([1]; MCF‐7, 48 h, 62.5 μM) | decrease in cell viability ([1]; MCF‐7, 48 h, 125 μM) | decrease in cell viability ([1]; MCF‐7, 48 h, 250 μM) | decrease in cell viability ([1]; MCF‐7, 48 h, 500 μM) | decrease in cell viability ([2]; A549, 24 h, 500 μM) | suppressive effect on cell proliferation / viability ([2]; A549, 24 h) | cell suppressive effect ([2]; A549, 24 h) | decrease in cell viability ([2]; A549, 48 h, 500 μM) | IC50 ([2]; A549, 24 h) | IC50 ([2]; A549, 48 h) | zone of inhibition [3] | zone of inhibition at 50 mg/mL [3] | other results |
| --- | --- | --- | --- | --- | --- | --- | --- | --- | --- | --- | --- | --- | --- | --- | --- | --- | --- | --- | --- | --- | --- |
| COc1ccc(C=C(C#N)c2ccccc2)cc1 [2a, 3‐(4‐methoxyphenyl)‐2‐phenylacrylonitrile] | 131 µM | 44 µM | 32% | 32% | 48% | 75% | 92% | 44% | 60% | 60% | 60% | 99% | 20% | did not show any cytotoxic activity | no cell suppressive effect | 94% | > 500 µM | 373 µM | 13 ± 0.71 mm | 13 mm | decrease in cell viability ([2]; A549, 48 h, 250 μM): 8% |
| COc1ccc(/C=C(\C#N)c2ccc(F)cc2)cc1 [2b] | 363 µM | 34 µM | 23% | 26% | 17% | 23% | 82% | 49% | 68% | 71% | 86% | 91% | 9% | – | no cell suppressive effect | 71% | > 500 µM | 422 µM | 13 ± 2.12 mm | 13 mm | cell suppressive effect ([2]; A549, 48 h): no cell suppressive effect |
| COc1ccc(/C=C(\C#N)c2cc(C(F)(F)F)cc(C(F)(F)F)c2)cc1 [2c] | 409 µM | 294 µM | 9% | 10% | 11% | 17% | 69% | 25% | 27% | 26% | 42% | 85% | – | no suppressive effect | – | 56% | > 500 µM | 473 µM | 14 ± 0 mm | 14 mm | – |
